# Measurements from patent US20230233519A1, “COMBINATION THERAPIES” (MEI Pharma, Inc., priority 2020, published 2023).
# Columns and labels:
# [1] = test system: cytarabine resistant (araC-R) U937 acute monocytic leukemia (AMoL) cells; test: Annexin V-FITC/PI apoptosis flow cytometry, araC-R U937; assay type: cell-based; settings: araC-R U937, 24 h, clinically achievable concentrations
# Method: (§1) Human adult AML cell lines (MOLM-13), human childhood AML cell lines (MV4-11 and THP-1), and cytarabine-resistant (araC-R) acute monocytic leukemia (AMoL) cell lines (U937) are treated with venetoclax and d-cis-3-(4-hydroxyphenyl)-4-(4-hydroxyphenyl)-8-methylchroman-7-ol (Compound A), alone or in combination, and are subject to flow cytometry analysis using Annexin V-fluorescein isothiocyanate (FITC)/propidium iodide (PI) Apoptosis Kit (Beckman Coulter, Brea, Calif.). Results are expressed as percent Annexin V-positive (Annexin V+) cells. For the AML/AMoL cell lines, experiments are performed three independent times in triplicate, and the data presented are from one representative experiment. The extent and direction of the antileukemic interaction between venetoclax and Compound A is determined by calculating the combination index (CI). CI<1 indicates synergistic effects, CI=1 indicates additive effects, and CI>1 indicates antagonistic effects. ***indicates p<0.001 compared to control.
# [2] = test system: THP-1 childhood AML cells; test: Annexin V-FITC/PI apoptosis flow cytometry, THP-1; assay type: cell-based, human; settings: THP-1, 24 h, clinically achievable concentrations
# Method: (§2) AML cell lines used as described herein include MOLM-13, MV4-11, and THP-1. MOLM-13 cells are purchased from AddexBio (San Diego, Calif., USA). MV4-11 and THP-1 cell lines are purchased from the American Type Culture Collection (Manassas, Va., USA). The cell lines are cultured in RPMI 1640 with 10-20% fetal bovine serum (Thermo Fisher Scientific, Waltham, Mass., USA), 2 mM L-glutamine, 100 U/mL penicillin, and 100 μg/mL streptomycin. All cells are cultured in a 37° C. humidified atmosphere containing 5% CO2/95% air. The cell lines are authenticated at the Genomics Core at Karmanos Cancer Institute using the Power-Plex 16 System from Promega (Madison, Wis., USA). […]
# as §1, with “For the AML/AMoL cell lines, experiments are performed three independent times in triplicate, and the data presented are from one representative experiment.” left out, “CI<1 indicates synergistic effects, CI=1 indicates additive effects, and CI>1 indicates antagonistic effects. ***indicates p<0.001 compared to control.” left out
# [3] = test system: MV4-11 childhood AML cells; test: Viable cells (annexin V negative and PI negative) by flow cytometry, MV4-11; assay type: cell-based, human; settings: MV4-11, 24 hr, clinically achievable concentrations
# Method: (§3) FIG. 2B depicts the percentage of viable MV4-11 childhood AML cells following treatment of MV4-11 childhood AML cell lines with venetoclax (VEN) and d-cis-3-(4-hydroxyphenyl)-4-(4-hydroxyphenyl)-8-methylchroman-7-ol (Compound A), alone or in combination, for 24 h. and then subjected to Annexin V-FITC/PI staining and flow cytometry analysis. Viable cells (annexin V negative and PI negative) were gated. Viable cell counts from no drug treatment controls were set at 100%, and the rest of the samples were normalized to the no drug treatment controls. The data were presented as mean percent of viable cells from triplicates with standard errors. […]
# as §1, with “For the AML/AMoL cell lines, experiments are performed three independent times in triplicate, and the data presented are from one representative experiment.” left out, “CI<1 indicates synergistic effects, CI=1 indicates additive effects, and CI>1 indicates antagonistic effects. ***indicates p<0.001 compared to control.” left out
# MOLM-13 AML cells [4] = test: Annexin V-FITC/PI apoptosis flow cytometry, MOLM-13; assay type: cell-based, human; settings: MOLM-13, 24 h, clinically achievable concentrations
# Method: as §2
# as §1, with “For the AML/AMoL cell lines, experiments are performed three independent times in triplicate, and the data presented are from one representative experiment.” left out, “CI<1 indicates synergistic effects, CI=1 indicates additive effects, and CI>1 indicates antagonistic effects. ***indicates p<0.001 compared to control.” left out
# [5] = test system: THP-1 childhood AML cells; test: Viable cells (annexin V negative and PI negative) by flow cytometry, THP-1; assay type: cell-based, human; settings: THP-1, 24 hr, clinically achievable concentrations
# Method: as §3, with “2C” for “2B”, “THP-1” for “MV4-11”
# as §1, with “For the AML/AMoL cell lines, experiments are performed three independent times in triplicate, and the data presented are from one representative experiment.” left out, “CI<1 indicates synergistic effects, CI=1 indicates additive effects, and CI>1 indicates antagonistic effects. ***indicates p<0.001 compared to control.” left out
# MOLM-13 AML cells [6] = test: Viable cells (annexin V negative and PI negative) by flow cytometry, MOLM-13; assay type: cell-based, human; settings: MOLM-13, 24 hr, clinically achievable concentrations
# Method: FIG. 2A depicts the percentage of viable MOLM-13 AML cells following treatment of MOLM-13 AML cell lines with venetoclax (VEN) and d-cis-3-(4-hydroxyphenyl)-4-(4-hydroxyphenyl)-8-methylchroman-7-ol (Compound A), alone or in combination, for 24 h and then subjected to Annexin V-FITC/PI staining and flow cytometry analysis. Viable cells (annexin V negative and PI negative) were gated. Viable cell counts from no drug treatment controls were set at 100%, and the rest of the samples were normalized to the no drug treatment controls. The data were presented as mean percent of viable cells from triplicates with standard errors.
# AML cell lines used as described herein include MOLM-13, MV4-11, and THP-1. […]
# as §1, with “For the AML/AMoL cell lines, experiments are performed three independent times in triplicate, and the data presented are from one representative experiment.” left out, “CI<1 indicates synergistic effects, CI=1 indicates additive effects, and CI>1 indicates antagonistic effects. ***indicates p<0.001 compared to control.” left out
# [7] = test system: MV4-11 childhood AML cells; test: Annexin V-FITC/PI apoptosis flow cytometry, MV4-11; assay type: cell-based, human; settings: MV4-11, 24 h, clinically achievable concentrations
# Method: as §2
# as §1, with “For the AML/AMoL cell lines, experiments are performed three independent times in triplicate, and the data presented are from one representative experiment.” left out, “CI<1 indicates synergistic effects, CI=1 indicates additive effects, and CI>1 indicates antagonistic effects. ***indicates p<0.001 compared to control.” left out
structure (smiles),measurement,setting,value
"Cc1c(O)ccc2c1OC[C@@H](c1ccc(O)cc1)[C@H]2c1ccc(O)cc1 [Compound A, d-cis-3-(4-hydroxyphenyl)-4-(4-hydroxyphenyl)-8-methylchroman-7-ol]",apoptosis (Annexin V+ cells),[1],high levels of apoptosis
same,apoptosis (Annexin V+ cells),[2],high levels of apoptosis
same,viability (percent of viable cells vs no drug control),[3],dose-dependent decrease in viability
same,apoptosis (Annexin V+ cells),MOLM-13 AML cells [4],high levels of apoptosis
same,viability (percent of viable cells vs no drug control),[5],dose-dependent decrease in viability
same,viability (percent of viable cells vs no drug control),MOLM-13 AML cells [6],dose-dependent decrease in viability
same,apoptosis (Annexin V+ cells),[7],high levels of apoptosis
